Test results as given in US20210338820A1, “PHARMACEUTICAL COMPOSITION COMPRISING ANTIEMETIC COMPOUNDS AND POLYORTHOESTER” (Heron Therapeutics, Inc., priority 2012, published 2021).

What was measured:
[1] = In-vitro release of formulation of aprepitant and granisetron (Example 1 formulation); format: physicochemical; settings: 37° C.; for active agent released from the formulation: Example 1 formulation, PBS + 2% CTAB; for in vitro release proceeded in a linear fashion up to: Example 1 semi-solid polyorthoester formulation, phosphate buffered saline + 2% CTAB, HPLC, FIG. 3
Procedure: In a first embodiment, 375 mg of aprepitant was dissolved in 1.3 g of a polyorthoester-compatible liquid excipient, dimethyl sulfoxide, and heated until completely dissolved. […] In a further embodiment, the formulation was weighed into vials and filled with a phosphate buffered saline solution and 2% CTAB (cetrimonium bromide). The vials were then stored at 37° C. Aliquots were taken daily and analyzed by HPLC to monitor for the release of granisetron and aprepitant from the formulation.
A formulation as described in Example 1 was weighed into vials and filled with a phosphate buffered saline solution and 2% CTAB (cetrimonium bromide). The vials were then stored at 37° C. Aliquots were taken daily and analyzed by HPLC to monitor for the release of granisetron and aprepitant from the formulation.

[2] = In-vitro release of formulation of fosaprepitant and granisetron (Example 6 formulation); format: physicochemical; settings: 37° C.; for active agent released from the formulation: Example 6 formulation, PBS; for in vitro release proceeded in a linear fashion up to: Example 6 semi-solid polyorthoester formulation, phosphate buffered saline, HPLC, FIG. 1
Excerpt: In a fifth embodiment, a formulation as described in Example 6 was weighed into vials and filled with a phosphate buffered saline solution.
A formulation as described in Example 6 was weighed into vials and filled with a phosphate buffered saline solution.

[3] = In vitro release of a formulation containing aprepitant (Example 3 formulation); format: physicochemical; settings: Example 3 semi-solid polyorthoester formulation; PBS + 2% CTAB, 37° C., HPLC, FIG. 4
Procedure: In a further embodiment, the formulation was weighed into vials and filled with a phosphate buffered saline solution and 2% CTAB. The vials were then stored at 37° C. and analyzed by HPLC to monitor for the release of aprepitant from the formulation (see FIG. 4).
A formulation as described in Example 3 was weighed into vials and filled with a phosphate buffered saline solution and 2% CTAB. The vials were then stored at 37° C. and analyzed by HPLC to monitor for the release of aprepitant from the formulation.

[4] = dog, in vivo, sc
Procedure: The syringes were stored at 2-8 C and brought to room temperature 1 hour before administration. Each dog received a single subcutaneous injection of the entire contents of 1 syringe (0.5 gm) over the dorsal lumbar muscle on Day 1. Blood was drawn from all dogs at the following time points: T=0, (immediately prior to drug administration), 1, 6, 12, 24, 48, 72, 96, 120, 144, and 168 hours post administration.

| active agent released from the formulation ([1]; at about 48 hours) | active agent released from the formulation ([1]; at about 144 hours) | in vitro release proceeded in a linear fashion up to [1] | active agent released from the formulation ([2]; at about 100 hours) | active agent released from the formulation ([1]; after about 120 hours) | in vitro release proceeded in a linear fashion up to [3] | bioavailability (areas under the curves) [4] | Structure (SMILES) | active agent released from the formulation ([2]; after about 60 hours) | active agent released from the formulation ([2]; at about 45 hours) | in vitro release proceeded in a linear fashion up to [2] |
| --- | --- | --- | --- | --- | --- | --- | --- | --- | --- | --- |
| about 65% | about 90% | about 48 hours | Nearly all |  |  |  | CN1C2CCCC1CC(NC(=O)c1nn(C)c3ccccc13)C2 (centres unmarked) [granisetron] | about 80% | about 25% | about 45 hours |
|  |  |  |  |  |  |  | C[C@@H](O[C@H]1OCCN(Cc2nc(O)n(P(=O)(O)O)n2)[C@H]1c1ccc(F)cc1)c1cc(C(F)(F)F)cc(C(F)(F)F)c1 [fosaprepitant] | about 60% | about 25% | about 45 hours |
| about 65% | Essentially all | about 48 hours | about 65% | about 90% | about 72 hours | good bioavailability | C[C@@H](O[C@H]1OCCN(Cc2n[nH]c(=O)[nH]2)[C@H]1c1ccc(F)cc1)c1cc(C(F)(F)F)cc(C(F)(F)F)c1 [aprepitant] |  |  |  |
